“Also recorded” adds a separate entry of the source.
System: pFlare splicing reporter (MAPT exon 10) in HEK293 cells
Assay: Dual fluorescence (RFP/GFP) alternative splicing reporter (pFlare) assay
Assay type: cell-based
Protocol: For evaluation of in vitro splicing activity using a two-color fluorescent splicing reporter system, HEK293T cells (mycoplasma-free authenticated cell lines obtained from ATCC) were grown in complete media (DMEM+10% FBS) and transfected with a series of fluorescent protein-expressing plasmids. Vector controls include pFlare5A, which expresses solely GFP, and pFlare5G, which expresses maximal RFP. The pFlare reporter contains microtubule-associated protein tau (MAPT) exon 10 as an indicator of alternative splicing. Under physiological conditions, the pFlare conditional reporter vector allows in-frame expression of GFP but not RFP. In the presence of splicing inhibitors, exon skipping favors production of RFP over GFP. […] Fluorescence was evaluated on a Leica fluorescent microscope (Sanford Consortium Stem Cell Core facility) and then analyzed by flow cytometry on a Miltenyi MACSQUANT® to assess transfection efficiency (ranging from over 70% at 24 hrs after transfection to approximately 20% at 48 hrs after transfection) and mean fluorescence intensity (MFI) of RFP and GFP in positive cells. In HEK293 cells transiently transfected with control GFP or RFP vectors, or the pFlare splicing reporter vector, the dynamic range of the assay as measured by MFI of GFP and RFP 48 hours after transfection ranged from 0.41-1.69 for RFP/GFP ratios (FIG. 6A). […]

`CC[C@H](OC)[C@@H](C)[C@H]1O[C@@H]1[C@@H](O)[C@H](C)/C=C/C=C(\C)[C@H]1OC(=O)C[C@H](O)CC[C@@](C)(O)[C@@H](OC(C)=O)/C=C/[C@@H]1C` (stereo in doubt) [Formula 17S-FD-895, 17S-FD-895] was tested, and the RFP/GFP ratios (HEK293 cells, 0.01-10 μM, 24 hrs, flow cytometry MFI) was “dose-dependent increase” and the “RFP fluorescence by confocal microscopy” value (reporter-transfected HEK293 cells, 1-10 μM, live-cell / time-lapse) was “increase in RFP fluorescence; also recorded: increased RFP/GFP expression; also recorded: increased RFP fluorescence”.

From patent US10675267B2, “Methods for detection and eradication of myeloid leukemia stem cells” (priority 2015, dated 2020)
